# Results published in US20250154554A1, “ANTIMICROBIAL SUSCEPTIBILITY” (priority 2022, published 2025).
# Structures can show the parent of a compound that is named as a salt. Where two headings read alike, the source gives them in different places.
# Columns and labels:
# K. pneumoniae = test: MIC of strains giving very major errors (VME); assay type: cell-based
# E. coli = test: MIC of strains giving very major errors (VME); assay type: cell-based
# E. cloacae = test: MIC of strains giving very major errors (VME); assay type: cell-based
# K. aerogenes = test: MIC of strains giving very major errors (VME); assay type: cell-based; conditions: strain EB 069, site 2
# [1] = test system: Gram-negative bacteria (Enterobacterales, Pseudomonas, Acinetobacter); conditions: for RM I (strains intermediate by reference method) / RM R (strains resistant by reference method) / RM S (strains susceptible by reference method): total of 3 sites, blood cultures; for CLSI RM I / EUCAST RM I: number of strains I; for CLSI RM R / EUCAST RM R: number of strains resistant; for CLSI RM S / EUCAST RM S: number of strains susceptible
# Enterobacterales = test: Broth microdilution MIC of meropenem for screening of carbapenemases; assay type: cell-based; conditions: the 2 strains found false negative in the carbapenemase screening
# Staphylococcus aureus = test: Vancomycin MIC by FASTgrampos kit versus broth microdilution (reference method); assay type: cell-based
# [2] = test system: Gram-positive bacteria (Staphylococcus spp, Enterococcus spp); test: Reference method (RM): disk diffusion and/or broth microdilution, S/I/R classification, Gram-positive strains; assay type: cell-based; conditions: for CLSI RM R / EUCAST RM R: number of strains resistant; for CLSI RM S / EUCAST RM S: number of strains susceptible;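 as to all read-outs here: susceptibility categories assigned with the latest EUCAST breakpoint tables or CLSI M100 29th edition breakpoints, with quality control of the reference methods following EUCAST and CLSI guidance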
# fungi = conditions: by cell membrane lesions; reference [13]; cited from earlier work
# bacteria = conditions: by cell membrane lesions; reference [14]; cited from earlier work
# S. aureus = test: MIC of strains giving very major errors (VME); assay type: cell-based; conditions: strain ST 099, site 2
# [3] = Klebsiella pneumoniae, strain EB 033, site 2, read-out: MIC
# [4] = CLSI, FASTinov, Porto, spiked on blood cultures
# [5] = CLSI, Hospital Ramon et Cajal, Madrid, patients' blood cultures
# [6] = EUCAST, FASTinov, Porto, spiked on blood cultures
# [7] = EUCAST, Hospital Ramon et Cajal, Madrid, patients' blood cultures
# [8] = EUCAST, Hospital S. João, Porto, patients' blood cultures
# [9] = CLSI, Hospital S. João, Porto, patients' blood cultures
# [10] = CLSI, FASTinov, Porto, spiked blood cultures
# [11] = CLSI, total of 3 sites, blood cultures
# [12] = EUCAST, FASTinov, Porto, spiked blood cultures
# [13] = EUCAST, total of 3 sites, blood cultures
# [14] = CLSI, Hospital Ramon et Cajal, Madrid, patients blood cultures
# [15] = EUCAST, Hospital Ramon et Cajal, Madrid, patients blood cultures
compound,measurement,setting,value
CO/N=C(\C(=O)N[C@@H]1C(=O)N2C(C(=O)[O-])=C(C[N+]3(C)CCCC3)CS[C@H]12)c1csc(N)n1 [Cefepime],MIC,K. pneumoniae; [3],32 µg/mL
same,MIC,"E. coli; Escherichia coli, strain EB 022, site 2, read-out: MIC",4 µg/mL
same,MIC,"E. coli; Escherichia coli, strain EB 052, site 2, read-out: MIC",64 µg/mL
CC(C)(O/N=C(\C(=O)N[C@@H]1C(=O)N2C(C(=O)[O-])=C(C[n+]3ccccc3)CS[C@H]12)c1csc(N)n1)C(=O)O [Ceftazidime],MIC,"E. cloacae; Enterobacter cloacae, strain EB 1168, site 1",32 µg/mL
same,MIC,K. aerogenes; Klebsiella aerogenes,16 µg/mL
same,MIC,K. pneumoniae; [3],32 µg/mL
same,RM I (strains intermediate by reference method),[1]; CLSI,4
same,RM R (strains resistant by reference method),[1]; CLSI,115
same,RM S (strains susceptible by reference method),[1]; CLSI,194
same,RM I (strains intermediate by reference method),[1]; EUCAST,34
same,RM R (strains resistant by reference method),[1]; EUCAST,119
same,RM S (strains susceptible by reference method),[1]; EUCAST,159
same,CLSI RM I,[1]; [4],3
same,CLSI RM I,[1]; [5],1
same,EUCAST RM I,[1]; [6],29
same,EUCAST RM I,[1]; [7],3
same,EUCAST RM I,[1]; [8],2
same,CLSI RM R,[1]; [4],94
same,CLSI RM R,[1]; [5],13
same,CLSI RM R,[1]; [9],8
same,EUCAST RM R,[1]; [6],98
same,EUCAST RM R,[1]; [7],15
same,EUCAST RM R,[1]; [8],6
same,CLSI RM S,[1]; [4],56
same,CLSI RM S,[1]; [5],64
same,CLSI RM S,[1]; [9],74
same,EUCAST RM S,[1]; [6],26
same,EUCAST RM S,[1]; [7],60
same,EUCAST RM S,[1]; [8],73
C[C@@H](O)[C@H]1C(=O)N2C(C(=O)O)=C(S[C@@H]3CN[C@H](C(=O)N(C)C)C3)[C@H](C)[C@H]12 [Meropenem],MIC,Enterobacterales,0.5 µg/mL
same,MIC,"K. pneumoniae; Klebsiella pneumoniae, strain EB 021, site 2, read-out: MIC",16 µg/mL
same,RM I (strains intermediate by reference method),[1]; CLSI,5
same,RM R (strains resistant by reference method),[1]; CLSI,10
same,RM S (strains susceptible by reference method),[1]; CLSI,217
same,RM R (strains resistant by reference method),[1]; EUCAST,9
same,RM S (strains susceptible by reference method),[1]; EUCAST,223
same,CLSI RM I,[1]; [4],5
same,CLSI RM R,[1]; [4],7
same,CLSI RM R,[1]; [5],3
same,EUCAST RM R,[1]; [6],6
same,EUCAST RM R,[1]; [7],3
same,CLSI RM S,[1]; [4],69
same,CLSI RM S,[1]; [5],72
same,CLSI RM S,[1]; [9],76
same,EUCAST RM S,[1]; [6],75
same,EUCAST RM S,[1]; [7],72
same,EUCAST RM S,[1]; [8],76
CN[C@H](CC(C)C)C(=O)N[C@H]1C(=O)N[C@@H](CC(N)=O)C(=O)N[C@H]2C(=O)N[C@H]3C(=O)N[C@H](C(=O)N[C@H](C(=O)O)c4cc(O)cc(O)c4-c4cc3ccc4O)[C@H](O)c3ccc(c(Cl)c3)Oc3cc2cc(c3O[C@@H]2O[C@H](CO)[C@@H](O)[C@H](O)[C@H]2O[C@H]2C[C@](C)(N)[C@H](O)[C@H](C)O2)Oc2ccc(cc2Cl)[C@H]1O [Vancomycin],number of S. aureus strains in MIC distribution,"Staphylococcus aureus; MIC by FASTgrampos 0.25 mg/L, MIC by microdilution 0.25 mg/L",2
same,number of S. aureus strains in MIC distribution,"Staphylococcus aureus; MIC by FASTgrampos 0.25 mg/L, MIC by microdilution 0.5 mg/L",15
same,number of S. aureus strains in MIC distribution,"Staphylococcus aureus; MIC by FASTgrampos 0.5 mg/L, MIC by microdilution 0.5 mg/L",21
same,number of S. aureus strains in MIC distribution,"Staphylococcus aureus; MIC by FASTgrampos 0.5 mg/L, MIC by microdilution 1 mg/L",10
same,number of S. aureus strains in MIC distribution,"Staphylococcus aureus; MIC by FASTgrampos 1 mg/L, MIC by microdilution 0.5 mg/L",3
same,number of S. aureus strains in MIC distribution,"Staphylococcus aureus; MIC by FASTgrampos 1 mg/L, MIC by microdilution 1 mg/L",7
same,number of S. aureus strains in MIC distribution,"Staphylococcus aureus; MIC by FASTgrampos 2 mg/L, MIC by microdilution 1 mg/L",3
same,number of S. aureus strains in MIC distribution,"Staphylococcus aureus; MIC by FASTgrampos 2 mg/L, MIC by microdilution 2 mg/L",2
same,RM I (strains intermediate by reference method),[2]; [10],3
same,RM R (strains resistant by reference method),[2]; [10],7
same,RM S (strains susceptible by reference method),[2]; [10],100
same,RM I (strains intermediate by reference method),[2]; [11],3
same,RM R (strains resistant by reference method),[2]; [11],8
same,RM S (strains susceptible by reference method),[2]; [11],254
same,RM R (strains resistant by reference method),[2]; [12],10
same,RM S (strains susceptible by reference method),[2]; [12],100
same,RM R (strains resistant by reference method),[2]; [13],11
same,RM S (strains susceptible by reference method),[2]; [13],254
same,CLSI RM R,[2]; [9],1
same,EUCAST RM R,[2]; [8],1
same,CLSI RM S,[2]; [14],56
same,CLSI RM S,[2]; [9],98
same,EUCAST RM S,[2]; [15],56
same,EUCAST RM S,[2]; [8],98
CN(C)CCCOc1nn(Cc2ccccc2)c2ccccc12 [benzydamine hydrochloride],killing of fungi,fungi,rapidly kills
same,killing of bacteria,bacteria,rapidly kills
Gentamicin,RM R (strains resistant by reference method),[2]; [10],15
same,RM S (strains susceptible by reference method),[2]; [10],51
same,RM R (strains resistant by reference method),[2]; [11],54
same,RM S (strains susceptible by reference method),[2]; [11],147
same,RM R (strains resistant by reference method),[2]; [12],29
same,RM S (strains susceptible by reference method),[2]; [12],37
same,RM R (strains resistant by reference method),[2]; [13],70
same,RM S (strains susceptible by reference method),[2]; [13],131
same,CLSI RM R,[2]; [14],15
same,CLSI RM R,[2]; [9],24
same,EUCAST RM R,[2]; [15],17
same,EUCAST RM R,[2]; [8],24
same,CLSI RM S,[2]; [14],28
same,CLSI RM S,[2]; [9],68
same,EUCAST RM S,[2]; [15],26
same,EUCAST RM S,[2]; [8],68
same,RM I (strains intermediate by reference method),[1]; CLSI,6
same,RM R (strains resistant by reference method),[1]; CLSI,77
same,RM S (strains susceptible by reference method),[1]; CLSI,262
same,RM R (strains resistant by reference method),[1]; EUCAST,69
same,RM S (strains susceptible by reference method),[1]; EUCAST,194
same,CLSI RM I,[1]; [4],3
same,CLSI RM I,[1]; [5],1
same,CLSI RM I,[1]; [9],2
same,CLSI RM R,[1]; [4],60
same,CLSI RM R,[1]; [5],9
same,CLSI RM R,[1]; [9],8
same,EUCAST RM R,[1]; [6],47
same,EUCAST RM R,[1]; [7],10
same,EUCAST RM R,[1]; [8],12
same,CLSI RM S,[1]; [4],120
same,CLSI RM S,[1]; [5],70
same,CLSI RM S,[1]; [9],72
same,EUCAST RM S,[1]; [6],64
same,EUCAST RM S,[1]; [7],65
same,EUCAST RM S,[1]; [8],65
same,MIC,"E. coli; strain EB 286, site 3",8 µg/mL
Penicillin,MIC,S. aureus,0.25 µg/mL
same,RM R (strains resistant by reference method),[2]; [10],82
same,RM S (strains susceptible by reference method),[2]; [10],49
same,RM R (strains resistant by reference method),[2]; [11],209
same,RM S (strains susceptible by reference method),[2]; [11],94
same,RM R (strains resistant by reference method),[2]; [12],28
same,RM S (strains susceptible by reference method),[2]; [12],7
same,RM R (strains resistant by reference method),[2]; [13],56
same,RM S (strains susceptible by reference method),[2]; [13],19
same,CLSI RM R,[2]; [14],53
same,CLSI RM R,[2]; [9],74
same,EUCAST RM R,[2]; [15],10
same,EUCAST RM R,[2]; [8],18
same,CLSI RM S,[2]; [14],15
same,CLSI RM S,[2]; [9],30
same,EUCAST RM S,[2]; [15],2
same,EUCAST RM S,[2]; [8],10
Piperacillin-tazobactam,MIC (mg/L),"E. cloacae; strain EB 123, site 1",64/4
same,MIC (mg/L),K. aerogenes,64/4
same,MIC,"K. pneumoniae; strain EB 101, site 1",64 µg/mL
same,RM I (strains intermediate by reference method),[1]; CLSI,13
same,RM R (strains resistant by reference method),[1]; CLSI,95
same,RM S (strains susceptible by reference method),[1]; CLSI,237
same,RM I (strains intermediate by reference method),[1]; EUCAST,51
same,RM R (strains resistant by reference method),[1]; EUCAST,86
same,RM S (strains susceptible by reference method),[1]; EUCAST,177
same,CLSI RM I,[1]; [4],6
same,CLSI RM I,[1]; [5],7
same,EUCAST RM I,[1]; [6],49
same,EUCAST RM I,[1]; [7],2
same,CLSI RM R,[1]; [4],87
same,CLSI RM R,[1]; [5],2
same,CLSI RM R,[1]; [9],6
same,EUCAST RM R,[1]; [6],71
same,EUCAST RM R,[1]; [7],9
same,EUCAST RM R,[1]; [8],6
same,CLSI RM S,[1]; [4],90
same,CLSI RM S,[1]; [5],71
same,CLSI RM S,[1]; [9],76
same,EUCAST RM S,[1]; [6],33
same,EUCAST RM S,[1]; [7],69
same,EUCAST RM S,[1]; [8],75
same,MIC (mg/L),"E. coli; strain EB 718, site 1",>128/4
